Source: patent publication US12077503B2, “Substituted cyclic amides and their use as herbicides” (FMC CORPORATION, priority 2015, dated 2024)

What was measured:
Type in all cases: in vivo
[1] = system: barnyardgrass (Echinochloa crus-galli); assay: Test G Post-Emergence Protocol; details: Echinochloa crus-galli, post-emergence, 312 h, read-out: Barnyardgrass damage rating; for pest or weed control at 15.625 g/ha: 15.625 g ai/ha, evaluated after 13 days (100=total damage to plant; 0=no damage to plant); for pest or weed control at 62.5 g/ha: 62.5 g ai/ha; for pest or weed control at 62.5 g/ha / pest or weed control at 250 g/ha: evaluated after 13 days, 100=total damage to plant, 0=no damage to plant; for pest or weed control at 250 g/ha: 250 g ai/ha
Method in brief: (§1)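 Values are percent visual injury at 13 days after treatment (0 none, 100 total). Treatment was a post-emergence spray at 15.625, 62.5 or 250 g/ha on 8-day-old pot plants kept at 24/16 °C.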

[2] = system: giant foxtail (Setaria faberi); assay: Test G Post-Emergence Protocol; details: Setaria faberi, post-emergence, 312 h, read-out: Foxtail, Giant damage rating; for pest or weed control at 15.625 g/ha: 15.625 g ai/ha, evaluated after 13 days (100=total damage to plant; 0=no damage to plant); for pest or weed control at 62.5 g/ha: 62.5 g ai/ha; for pest or weed control at 62.5 g/ha / pest or weed control at 250 g/ha: evaluated after 13 days, 100=total damage to plant, 0=no damage to plant; for pest or weed control at 250 g/ha: 250 g ai/ha
Method in brief: as §1

[3] = system: ivy-leaved morning glory (Ipomoea hederacea); assay: Test G Post-Emergence Protocol; details: Ipomoea, post-emergence, 312 h, read-out: Morningglory, Ivy-leaved damage rating; for pest or weed control at 15.625 g/ha: 15.625 g ai/ha, evaluated after 13 days (100=total damage to plant; 0=no damage to plant); for pest or weed control at 62.5 g/ha: 62.5 g ai/ha; for pest or weed control at 62.5 g/ha / pest or weed control at 250 g/ha: evaluated after 13 days, 100=total damage to plant, 0=no damage to plant; for pest or weed control at 250 g/ha: 250 g ai/ha
Method in brief: as §1

[4] = system: corn (Zea mays); assay: Test G Post-Emergence Protocol; details: Zea mays, post-emergence, 312 h, read-out: Corn damage rating; for plant injury at 15.625 g/ha: 15.625 g ai/ha, evaluated after 13 days (100=total damage to plant; 0=no damage to plant); for plant injury at 62.5 g/ha: 62.5 g ai/ha; for plant injury at 62.5 g/ha / plant injury at 250 g/ha: evaluated after 13 days, 100=total damage to plant, 0=no damage to plant; for plant injury at 250 g/ha: 250 g ai/ha
Method in brief: as §1

[5] = system: redroot pigweed (Amaranthus retroflexus); assay: Test G Post-Emergence Protocol; details: Amaranthus retroflexus, post-emergence, 312 h, read-out: Pigweed, Redroot damage rating; for pest or weed control at 15.625 g/ha: 15.625 g ai/ha, evaluated after 13 days (100=total damage to plant; 0=no damage to plant); for pest or weed control at 62.5 g/ha: 62.5 g ai/ha; for pest or weed control at 62.5 g/ha / pest or weed control at 250 g/ha: evaluated after 13 days, 100=total damage to plant, 0=no damage to plant; for pest or weed control at 250 g/ha: 250 g ai/ha
Method in brief: as §1

[6] = system: velvetleaf (Abutilon theophrasti); assay: Test G Post-Emergence Protocol; details: Abutilon theophrasti, post-emergence, 312 h, read-out: Velvetleaf damage rating; for pest or weed control at 15.625 g/ha: 15.625 g ai/ha, evaluated after 13 days (100=total damage to plant; 0=no damage to plant); for pest or weed control at 62.5 g/ha: 62.5 g ai/ha; for pest or weed control at 62.5 g/ha / pest or weed control at 250 g/ha: evaluated after 13 days, 100=total damage to plant, 0=no damage to plant; for pest or weed control at 250 g/ha: 250 g ai/ha
Method in brief: as §1

[7] = system: barnyardgrass (Echinochloa crus-galli); assay: Test G Pre-Emergence Protocol; details: Echinochloa crus-galli, pre-emergence, 312 h, evaluated after 13 days; for pest or weed control at 15.625 g/ha: 15.625 g ai/ha; for pest or weed control at 15.625 g/ha / pest or weed control at 250 g/ha: read-out: Barnyardgrass damage rating (100=total damage to plant; 0=no damage to plant); for pest or weed control at 62.5 g/ha: 62.5 g ai/ha, 100=total damage to plant, 0=no damage to plant, read-out: Barnyardgrass damage rating; for pest or weed control at 250 g/ha: 250 g ai/ha
Method in brief: (§2)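 Seeds were sown in standard soil and kept one day in a glasshouse (24/16° C day/night, 14 h light, 65% humidity), then sprayed with compound in acetone/water (50:50) containing 0.5% Tween 20 at 15.625, 62.5 or 250 g/ha. Damage was scored after 13 days (0 = none, 100 = total).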

[8] = system: giant foxtail (Setaria faberi); assay: Test G Pre-Emergence Protocol; details: Setaria faberi, pre-emergence, 312 h, evaluated after 13 days; for pest or weed control at 15.625 g/ha: 15.625 g ai/ha; for pest or weed control at 15.625 g/ha / pest or weed control at 250 g/ha: read-out: Foxtail, Giant damage rating (100=total damage to plant; 0=no damage to plant); for pest or weed control at 62.5 g/ha: 62.5 g ai/ha, 100=total damage to plant, 0=no damage to plant, read-out: Foxtail, Giant damage rating; for pest or weed control at 250 g/ha: 250 g ai/ha
Method in brief: as §2

[9] = system: ivy-leaved morning glory (Ipomoea hederacea); assay: Test G Pre-Emergence Protocol; details: Ipomoea, pre-emergence, 312 h, evaluated after 13 days; for pest or weed control at 15.625 g/ha: 15.625 g ai/ha; for pest or weed control at 15.625 g/ha / pest or weed control at 250 g/ha: read-out: Morningglory, Ivy-leaved damage rating (100=total damage to plant; 0=no damage to plant); for pest or weed control at 62.5 g/ha: 62.5 g ai/ha, 100=total damage to plant, 0=no damage to plant, read-out: Morningglory, Ivy-leaved damage rating; for pest or weed control at 250 g/ha: 250 g ai/ha
Method in brief: as §2

[10] = system: corn (Zea mays); assay: Test G Pre-Emergence Protocol; details: Zea mays, pre-emergence, 312 h, evaluated after 13 days; for plant injury at 15.625 g/ha: 15.625 g ai/ha; for plant injury at 15.625 g/ha / plant injury at 250 g/ha: read-out: Corn damage rating (100=total damage to plant; 0=no damage to plant); for plant injury at 62.5 g/ha: 62.5 g ai/ha, 100=total damage to plant, 0=no damage to plant, read-out: Corn damage rating; for plant injury at 250 g/ha: 250 g ai/ha
Method in brief: as §2

[11] = system: redroot pigweed (Amaranthus retroflexus); assay: Test G Pre-Emergence Protocol; details: Amaranthus retroflexus, pre-emergence, 312 h, evaluated after 13 days; for pest or weed control at 15.625 g/ha: 15.625 g ai/ha; for pest or weed control at 15.625 g/ha / pest or weed control at 250 g/ha: read-out: Pigweed, Redroot damage rating (100=total damage to plant; 0=no damage to plant); for pest or weed control at 62.5 g/ha: 62.5 g ai/ha, 100=total damage to plant, 0=no damage to plant, read-out: Pigweed, Redroot damage rating; for pest or weed control at 250 g/ha: 250 g ai/ha
Method in brief: as §2

[12] = system: velvetleaf (Abutilon theophrasti); assay: Test G Pre-Emergence Protocol; details: Abutilon theophrasti, pre-emergence, 312 h, evaluated after 13 days; for pest or weed control at 15.625 g/ha: 15.625 g ai/ha; for pest or weed control at 15.625 g/ha / pest or weed control at 250 g/ha: read-out: Velvetleaf damage rating (100=total damage to plant; 0=no damage to plant); for pest or weed control at 62.5 g/ha: 62.5 g ai/ha, 100=total damage to plant, 0=no damage to plant, read-out: Velvetleaf damage rating; for pest or weed control at 250 g/ha: 250 g ai/ha
Method in brief: as §2

Compound | pest or weed control at 15.625 g/ha [1] [%] | pest or weed control at 62.5 g/ha [1] [%] | pest or weed control at 250 g/ha [1] [%] | pest or weed control at 15.625 g/ha [2] [%] | pest or weed control at 62.5 g/ha [2] [%] | pest or weed control at 250 g/ha [2] [%] | pest or weed control at 15.625 g/ha [3] [%] | pest or weed control at 62.5 g/ha [3] [%] | pest or weed control at 250 g/ha [3] [%] | plant injury at 15.625 g/ha [4] [%] | plant injury at 62.5 g/ha [4] [%] | plant injury at 250 g/ha [4] [%] | pest or weed control at 15.625 g/ha [5] [%] | pest or weed control at 62.5 g/ha [5] [%] | pest or weed control at 250 g/ha [5] [%] | pest or weed control at 15.625 g/ha [6] [%] | pest or weed control at 62.5 g/ha [6] [%] | pest or weed control at 250 g/ha [6] [%] | pest or weed control at 15.625 g/ha [7] [%] | pest or weed control at 62.5 g/ha [7] [%] | other results
CN1C[C@H](c2cc(C(C)(C)C)ncn2)[C@@H](C(=O)Nc2ccc(F)c(F)c2F)C1=O (racemic) [Compound 1668] | 0 | 0 | 0 | 0 | 0 | 10 | 0 | 0 | 0 | 0 | 0 | 0 | 0 | 0 | 0 | 0 | 0 | 0 | 0 | 0 | pest or weed control at 250 g/ha [7]: 20%; pest or weed control at 15.625 g/ha [8]: 0%; pest or weed control at 62.5 g/ha [8]: 0%; pest or weed control at 250 g/ha [8]: 20%; pest or weed control at 15.625 g/ha [9]: 0%; pest or weed control at 62.5 g/ha [9]: 0%; plant injury at 15.625 g/ha [10]: 0%; plant injury at 62.5 g/ha [10]: 0%; plant injury at 250 g/ha [10]: 0%; pest or weed control at 15.625 g/ha [11]: 0%; pest or weed control at 62.5 g/ha [11]: 0%; pest or weed control at 250 g/ha [11]: 0%; pest or weed control at 15.625 g/ha [12]: 0%; pest or weed control at 62.5 g/ha [12]: 0%; pest or weed control at 250 g/ha [12]: 0%
CN1C[C@H](c2ccc(C(F)(F)F)cc2)[C@@H](C(=O)Nc2cccc3c2C(=O)OC3)C1=O (racemic) [Compound 1669] | 0 | 30 | 70 | 30 | 50 | 80 | 0 | 20 | 60 | 10 | 0 | 0 | 0 | 0 | 30 | 0 | 0 | 0 | 0 | 0 | pest or weed control at 250 g/ha [7]: 10%; pest or weed control at 15.625 g/ha [8]: 0%; pest or weed control at 62.5 g/ha [8]: 20%; pest or weed control at 250 g/ha [8]: 60%; pest or weed control at 15.625 g/ha [9]: 0%; pest or weed control at 62.5 g/ha [9]: 0%; pest or weed control at 250 g/ha [9]: 10%; plant injury at 15.625 g/ha [10]: 0%; plant injury at 62.5 g/ha [10]: 0%; plant injury at 250 g/ha [10]: 0%; pest or weed control at 15.625 g/ha [11]: 0%; pest or weed control at 62.5 g/ha [11]: 10%; pest or weed control at 250 g/ha [11]: 20%; pest or weed control at 15.625 g/ha [12]: 0%; pest or weed control at 62.5 g/ha [12]: 0%; pest or weed control at 250 g/ha [12]: 10%
CN1C[C@H](c2ccc(C(F)(F)F)cc2)[C@@H](C(=O)Nc2ccc(C(F)(F)F)cn2)C1=O (racemic) [Compound 1672] | 0 | 0 | 0 | 0 | 0 | 0 | 0 | 0 | 0 | 0 | 0 | 10 | 0 | 30 | 40 | 0 | 0 | 0 | 0 | 0 | pest or weed control at 250 g/ha [7]: 0%; pest or weed control at 15.625 g/ha [8]: 0%; pest or weed control at 62.5 g/ha [8]: 0%; pest or weed control at 250 g/ha [8]: 0%; pest or weed control at 15.625 g/ha [9]: 0%; pest or weed control at 62.5 g/ha [9]: 0%; pest or weed control at 250 g/ha [9]: 0%; plant injury at 15.625 g/ha [10]: 0%; plant injury at 62.5 g/ha [10]: 0%; plant injury at 250 g/ha [10]: 0%; pest or weed control at 15.625 g/ha [11]: 0%; pest or weed control at 62.5 g/ha [11]: 0%; pest or weed control at 250 g/ha [11]: 0%; pest or weed control at 15.625 g/ha [12]: 0%; pest or weed control at 62.5 g/ha [12]: 0%; pest or weed control at 250 g/ha [12]: 0%
